Measurements from paper PMC5769417, “Single- and Multiple-Dose Trials to Determine the Pharmacokinetics, Safety, Tolerability, and Sex Effect of Oral Ginsenoside Compound K in Healthy Chinese Volunteers” (Frontiers in Pharmacology, 2018).
Values joined by “and” are separate entries in the source; they are usually repeats but may differ in a detail not shown here. Equal entries are not always repeated. Where two headings read alike, the source gives them in different places.

Test: Multiple-dose trial, plasma pharmacokinetics
Type: in vivo, human
Details: for MRT last / AUC / concentration at 15 day / half-life / Tmax / AUC(0-inf) / AUC(0-t) / MRT inf / Cmax: human, plasma; for AUC: Day 15, read-out: AUCτ (zero to 24 h); for concentration at 15 day: Day 15, steady state, read-out: Cmin
Description: Multiple-dose pharmacokinetics: […] Multiple-dose pharmacokinetics: […] All samples were preserved at −70°C and analyzed with a LC-MS/MS (API 4000 LC-MS/MS, ABI Company, Foster City, CA, USA) at the Institute of Clinical Pharmacology, Central South University (Changsha, China). […] An aqueous solution of a stable internal standard (IS for CK: digoxin, Shijiaoke Biological Technology Co. Ltd., Beijing, China; IS for PPD: coumarin, Sigma-Aldrich, St. Louis, USA) and 1 M phosphate buffer were added to 0.5 ml of thawed sample, and analytical standards and quality control (QC) samples were prepared in the same matrix. All samples were treated with 2 ml of methyl tert-butyl ether (MTBE, CNW technologies GmbH, Duesseldorf, Germany) to precipitate the bulk of plasma proteins. After mechanical shock by mixing for 10 min and a subsequent centrifugation (4,000 rpm, 4°C, 10 min), 1.4 ml of the supernatant was transferred and blow-dried with nitrogen in a water bath at 40°C. Lastly, the residue was dissolved in 100 μl of mobile phase and then was subjected to a mechanical shock by mixing, and centrifuged. The supernatant was subsequently injected into the column for analysis. […] Accuracy and precision of the assay were determined by evaluating the performance of the assay controls. Over the quantification range, the accuracy of the QC samples varied from 85 to 115% and the intra- and inter-assay imprecision was <15%. […] The area under the curve (AUC) from time zero to the last time point (AUClast) and the AUC extrapolated to infinity (AUCinf) were calculated using the linear trapezoidal rule. The slope (elimination rate constant, K) of the terminal phase of the plasma concentration-time profile was determined, using a weighting factor of 1, by the method of least squares (log-linear regression of at least three data points). The t1/2 was estimated as (ln2)/K. […] The apparent volume of distribution (V/F) was equal to (CL/F)/K. The mean residence time (MRT) was calculated as the area under the first moments curve (AUMC) divided by AUC. The dose-normalized PK parameters e.g., Cmax/D and AUClast/D, were obtained by dividing each PK result by the administered dose. The cumulative excretion rate was calculated as the amount of unchanged drug in the urine over a time interval divided by the dose and was expressed as thousand points (‰). On day 15 in the multiple-dose trial, the PK parameters, such as t1/2, CL/F, and V/F at steady state were calculated using the same method as that used for the single-dose trial. In addition, the Tmax at steady state (Tmax,ss), Cmax at steady state (Cmax,ss), and Cmin,ss were obtained from experimental observation after the steady state during the multiple-dose trial. […] The average steady-state drug concentration (Cavg) is calculated as AUCτ/τ, and the fluctuation ratio was calculated as (Cmax,ss − Cmin,ss)/Cavg. The accumulation index was calculated using dosing interval and elimination rate constant as in the following equation: 1/(1 − e^−Kτ).

[1] = 100 mg oral after breakfast, Day 1
[2] = 100 mg qd oral after breakfast, Day 15
[3] = 200 mg oral after breakfast, Day 1
[4] = 200 mg qd oral after breakfast, Day 15
[5] = 400 mg oral after breakfast, Day 1
[6] = 400 mg qd oral after breakfast, Day 15
[7] = both sexes, 100 mg qd oral after breakfast
[8] = both sexes, 200 mg qd oral after breakfast
[9] = both sexes, 400 mg qd oral after breakfast
[10] = both sexes, po, 100 mg, 100 mg oral after breakfast, Day 1
[11] = both sexes, po, 100 mg, 100 mg qd oral after breakfast, Day 15
[12] = both sexes, po, 200 mg, 200 mg oral after breakfast, Day 1
[13] = both sexes, po, 200 mg, 200 mg qd oral after breakfast, Day 15
[14] = both sexes, po, 400 mg, 400 mg oral after breakfast, Day 1
[15] = both sexes, po, 400 mg, 400 mg qd oral after breakfast, Day 15

CC(C)=CCC[C@](C)(OC1O[C@H](CO)[C@@H](O)[C@H](O)[C@H]1O)[C@H]1CC[C@]2(C)[C@@H]1[C@H](O)C[C@@H]1[C@@]3(C)CC[C@H](O)C(C)(C)[C@@H]3CC[C@]12C (stereo partly drawn) [CK, 20-O-beta-D-glucopyranosyl-20(S)-protopanaxadiol]
CL/F [1]: 11.6 ± 3.0 l·h ^−1
V/F [1]: 402 ± 54 L
AUMCτ (zero to 24 h) [2]: 60141.5 ± 17696.2 ng·h/mL
CL/F [2]: 13.4 ± 3.6 l·h ^−1
Fluctuation [2]: 259.42% and 259.42 ± 48.85%
V/F [2]: 661 ± 242 L
Accumulation index (100 mg qd, 1/(1 − e^−Kτ)): 2.62 and 2.62 ± 0.62
CL/F [3]: 9.6 ± 3.1 l·h ^−1
V/F [3]: 326 ± 137 L
AUMCτ (zero to 24 h) [4]: 179177.1 ± 49122.9 ng·h/mL
CL/F [4]: 8.6 ± 2.5 l·h ^−1
Fluctuation [4]: 289.25% and 289.25 ± 35.75%
V/F [4]: 455 ± 152 L
Accumulation index (200 mg qd, 1/(1 − e^−Kτ)): 2.78 and 2.78 ± 0.73
CL/F [5]: 9.4 ± 2.4 l·h ^−1
V/F [5]: 358 ± 118 L
AUMCτ (zero to 24 h) [6]: 306621.5 ± 78711.0 ng·h/mL
CL/F [6]: 10.3 ± 3.0 l·h ^−1
Fluctuation [6]: 273.98% and 273.98 ± 37.16%
V/F [6]: 514 ± 188 L
Accumulation index (400 mg qd, 1/(1 − e^−Kτ)): 2.60 and 2.60 ± 0.31
accumulation index range (100–400 mg qd): 2.60–2.78
AUCinf/D, dose-normalized AUCinf (Day 1, Female): 116.58 ± 28.07^* h·ng·ml^−1·mg^−1
AUClast/D, dose-normalized AUClast (Day 1, Female): 114.23 ± 27.97 ng·h/mL/mg
Cmax/D, dose-normalized Cmax (Day 1, Female): 14.49 ± 4.07 ng/mL/mg
AUCinf/D, dose-normalized AUCinf (Day 1, Male): 94.22 ± 24.54 ng·h/mL/mg
AUClast/D, dose-normalized AUClast (Day 1, Male): 92.27 ± 24.00 ng·h/mL/mg
Cmax/D, dose-normalized Cmax (Day 1, Male): 11.00 ± 4.25 ng/mL/mg
AUCinf/D, dose-normalized AUCinf (Day 1, all subjects): 105.41 ± 28.29 ng·h/mL/mg
AUClast/D, dose-normalized AUClast (Day 1, all subjects): 103.25 ± 27.94 ng·h/mL/mg
Cmax/D, dose-normalized Cmax (Day 1, all subjects): 12.74 ± 4.46 ng/mL/mg
AUCinf/D, GMR (95% CI) (Day 1, between sexes): 1.25 (1.03–1.51)
AUClast/D, GMR (95% CI) (Day 1, between sexes): 1.25 (1.03–1.51)
Cmax/D, GMR (95% CI) (Day 1, between sexes): 1.37 (1.04–1.80)
AUCinf/D, GMR (95% CI) (Day 1 vs Day 15): 0.75 (0.64–0.87)
AUClast/D, GMR (95% CI) (Day 1 vs Day 15): 0.79 (0.67–0.91)
Cmax/D, GMR (95% CI) (Day 1 vs Day 15): 1.00 (0.82–1.22)
AUCinf/D, dose-normalized AUCinf (Day 15, Female): 153.33 ± 30.98 ng·h/mL/mg
AUClast/D, dose-normalized AUClast (Day 15, Female): 143.45 ± 29.33 ng·h/mL/mg
Cmax/D, dose-normalized Cmax (Day 15, Female): 14.25 ± 3.38 ng/mL/mg
AUCinf/D, dose-normalized AUCinf (Day 15, Male): 132.87 ± 52.60 ng·h/mL/mg
AUClast/D, dose-normalized AUClast (Day 15, Male): 123.74 ± 47.85 ng·h/mL/mg
Cmax/D, dose-normalized Cmax (Day 15, Male): 11.18 ± 5.19 ng/mL/mg
AUCinf/D, dose-normalized AUCinf (Day 15, all subjects): 143.10 ± 43.67 ng·h/mL/mg
AUClast/D, dose-normalized AUClast (Day 15, all subjects): 133.59 ± 40.26 ng·h/mL/mg
Cmax/D, dose-normalized Cmax (Day 15, all subjects): 12.71 ± 4.58 ng/mL/mg
AUCinf/D, GMR (95% CI) (Day 15, between sexes): 1.21 (0.96–1.53)
AUClast/D, GMR (95% CI) (Day 15, between sexes): 1.21 (0.96–1.52)
Cmax/D, GMR (95% CI) (Day 15, between sexes): 1.36 (1.04–1.76)
MRT last (both sexes, 100 mg oral after breakfast, Day 1): 12.2 ± 1.4 h
AUC [7]: 8000 ± 2320 ng·h/mL
concentration at 15 day [7]: 333 ± 96.7 ng/mL
MRT last (both sexes, 200 mg oral after breakfast, Day 1): 12.6 ± 1.6 h
AUC [8]: 24700 ± 6290 ng·h/mL
concentration at 15 day [8]: 1030 ± 262 ng/mL
MRT last (both sexes, 400 mg oral after breakfast, Day 1): 12.5 ± 1 h
AUC [9]: 41400 ± 10400 ng·h/mL
concentration at 15 day [9]: 1730 ± 432 ng/mL
half-life (both sexes, oral, 400 mg, Day 1, 100, 200 or 400 mg, read-out: mean t1/2 across the dose groups): 23.4 to 26.1 h
Tmax (both sexes, oral, 400 mg, Day 1, 100, 200 or 400 mg, read-out: median Tmax across the dose groups): 2.5 to 3 h
Tmax (both sexes, oral, Day 1, all subjects, read-out: Tmax, median (range)): 3 h
half-life (both sexes, oral, Day 1, all subjects, read-out: t1/2 (converted)): 24.9 ± 5.8 h
Tmax (both sexes, oral, Day 15, all subjects, read-out: Tmax, median (range)): 3.5 h
half-life (both sexes, oral, Day 15, all subjects, read-out: t1/2 (converted)): 35.3 ± 9.6 h
AUC(0-inf) [10]: 9070 ± 2060 ng·h/mL
AUC(0-t) [10]: 8880 ± 1990 ng·h/mL
MRT inf [10]: 14.6 ± 2.1 h
Cmax (both sexes, po, 100 mg, 100 mg oral after breakfast, Day 1, read-out: Cmax): 1120 ± 411 ng/mL
half-life (both sexes, po, 100 mg, 100 mg oral after breakfast, Day 1, read-out: t1/2 (converted)): 25.2 ± 5.6 h
AUC(0-inf) [11]: 11100 ± 3230 ng·h/mL
AUC(0-t) [11]: 10400 ± 3010 ng·h/mL
MRT inf [11]: 17 ± 2.2 h
Cmax (both sexes, po, 100 mg, 100 mg qd oral after breakfast, Day 15, read-out: Cmax): 934 ± 323 ng/mL
Tmax (both sexes, po, 100 mg, 100 mg qd oral after breakfast, Day 15, read-out: Tmax, median (range)): 3.8 h
half-life (both sexes, po, 100 mg, 100 mg qd oral after breakfast, Day 15, read-out: t1/2 (converted)): 34.6 ± 10.5 h
AUC(0-inf) [12]: 22700 ± 6350 ng·h/mL
AUC(0-t) [12]: 22300 ± 6320 ng·h/mL
MRT inf [12]: 14.9 ± 2 h
Cmax (both sexes, po, 200 mg, 200 mg oral after breakfast, Day 1, read-out: Cmax): 2880 ± 984 ng/mL
Tmax (both sexes, po, 200 mg, 200 mg oral after breakfast, Day 1, read-out: Tmax, median (range)): 3 h
half-life (both sexes, po, 200 mg, 200 mg oral after breakfast, Day 1, read-out: t1/2 (converted)): 23.4 ± 7.9 h
AUC(0-inf) [13]: 34000 ± 9060 ng·h/mL
AUC(0-t) [13]: 31600 ± 8130 ng·h/mL
MRT inf [13]: 16.1 ± 1.6 h
Cmax (both sexes, po, 200 mg, 200 mg qd oral after breakfast, Day 15, read-out: Cmax): 3180 ± 877 ng/mL
Tmax (both sexes, po, 200 mg, 200 mg qd oral after breakfast, Day 15, read-out: Tmax, median (range)): 3.5 h
half-life (both sexes, po, 200 mg, 200 mg qd oral after breakfast, Day 15, read-out: t1/2 (converted)): 37.3 ± 12.3 h
AUC(0-inf) [14]: 44900 ± 11200 ng·h/mL
AUC(0-t) [14]: 43900 ± 11100 ng·h/mL
MRT inf [14]: 15.2 ± 1.5 h
Cmax (both sexes, po, 400 mg, 400 mg oral after breakfast, Day 1, read-out: Cmax): 5060 ± 1650 ng/mL
Tmax (both sexes, po, 400 mg, 400 mg oral after breakfast, Day 1, read-out: Tmax, median (range)): 3 h
half-life (both sexes, po, 400 mg, 400 mg oral after breakfast, Day 1, read-out: t1/2 (converted)): 26.1 ± 3.3 h
AUC(0-inf) [15]: 59200 ± 13300 ng·h/mL
AUC(0-t) [15]: 55200 ± 12800 ng·h/mL
MRT inf [15]: 17.9 ± 1.8 h
Cmax (both sexes, po, 400 mg, 400 mg qd oral after breakfast, Day 15, read-out: Cmax): 5170 ± 1500 ng/mL
half-life (both sexes, po, 400 mg, 400 mg qd oral after breakfast, Day 15, read-out: t1/2 (converted)): 34.2 ± 5.3 h
Tmax (female, oral, Day 1, Female, read-out: Tmax, median (range)): 3 h
half-life (female, oral, Day 1, Female, read-out: t1/2 (converted)): 26.4 ± 6.2 h
Tmax (female, oral, Day 15, Female, read-out: Tmax, median (range)): 3.5 h
half-life (female, oral, Day 15, Female, read-out: t1/2 (converted)): 36.3 ± 1.05 h
Tmax (male, oral, Day 1, Male, read-out: Tmax, median (range)): 3 h
half-life (male, oral, Day 1, Male, read-out: t1/2 (converted)): 23.3 ± 5.2 h
Tmax (male, oral, Day 15, Male, read-out: Tmax, median (range)): 3.5 h
half-life (male, oral, Day 15, Male, read-out: t1/2 (converted)): 34.3 ± 9.8 h
steady state reached (once daily): after the 7th administration
Accumulation index (overall): ~2.66
